Experimental findings from patent US20080262011A1, “Modulator” (priority 2004, published 2008) are described below.

One data set has as its target T1, central CB1 receptors (Mus musculus, UniProt P47746).
T1 construct: from tissue; host or cells: whole animal (normal mice), CNS
Kind of data set: Psychotropic activity: adverse cannabimimetic (tetrad) effects in mice. The settings on record: in vivo, FIG. 6 legend. How it is done:
Many CB1 agonists are known to induce psychotropic associated “tetrad effects” due to central binding to CB receptors [Howlett, A. C. et al, International Union of Pharmacology. XXVII, Pharmacol. Rev. 2002, 54, 161-202]. Studies were undertaken to investigate whether the compounds of the present invention also bound to central CB1 receptors. This is assessed by measuring the ability of the compounds to induce sedation, ptosis, hypomotility, catalepsy and hypothermia in normal mice [Brooks, J. W. et al, Eur. J. Pharmacol. 2002, 439, 83-92], following i.v., i.p. and oral administration.

The next data set has as its target T2, CB1 receptors (Rattus norvegicus, UniProt P20272).
T2 construct: cerebellar membranes (400 μg wet weight per tube) were thoroughly mixed in a final volume of 0.5 mL; from tissue; host or cells: rat cerebellum (Male Wistar rats), membrane homogenate
Kind of data set: Radioligand binding assay: displacement of [3H]SR141716A from rat cerebellar homogenates. How it is done:
SR141716A from rat cerebellar homogenates. […] (M).
Radioligand binding assays provide a simple measure of activity at the CB1 receptors. For functional activity, the vas deferens or cyclic 3′,5′-adenosine monophosphate (cAMP) assays described below are used. The assays are carried out with a protocol modified from the literature using the CB1 receptor antagonist [^3H] SR141716A (0.5 nM) in rat brain membranes. Male Wistar rats (150-200 g), which were allowed free access to food and water, were used. Briefly, animals were killed by cervical dislocation and cerebella dissected into ice-cold 0.25 M sucrose. Homogenates were prepared by suspension of cerebella in ice-cold 50 mM, pH 7.4 HEPES (assay) buffer using an Ultra-Turrax™ homogeniser. Homogenates were subsequently centrifuged at 45,000 rpm for 15 min at 4° C., and re-suspended in fresh ice-cold assay buffer to give a final concentration of 1 mg/mL wet weight. Compounds under test were dissolved in dimethyl sulfoxide (DMSO) and transferred to 14 mL polypropylene test tubes. [^3H] SR141617A {final concentration of approximately 0.5 nM prepared in assay buffer containing 0.1% v/v tris(2-butoxyethyl)phosphate} and cerebellar membranes (400 μg wet weight per tube) were thoroughly mixed in a final volume of 0.5 mL and incubated for 1 h at 37° C. The tubes were transferred to a Brandel filtration apparatus, 5 mL ice-cold assay buffer added, and the tube contents vacuum-aspirated through Whatman GF/C glass fibre filters. A further 5 mL of ice-cold wash buffer was added to tubes and the wash/vacuum cycle repeated a further three times. The filters were transferred to plastic Mini-PolyQ™ vials, Picofluor™ liquid scintillant added, and radioactivity (dpm) was quantified using a Beckman LS6000 Liquid Scintillation Counter. The concentrations of competing ligand (test compounds) to produce 50% displacement of the radioligand (IC50) from specific binding sites were computed using Origin™, by fitting total bound ligand (y-axis as dpm) against compound concentration (x-axis, log 10[x] as M) to the logistic equation y=a+b/[1+exp{−c(x−IC50)}]. Where a=lower asymptote, b=specific bound and c=slope function.
A general note: Displacement assays read how much labelled ligand stays bound in the presence of the test substance.

As usually defined, the IC50 is the point on the concentration scale where inhibition reaches its midpoint.

Read-outs that look alike come from different tables or passages of the source.

T2 sequence (P20272 whole entry): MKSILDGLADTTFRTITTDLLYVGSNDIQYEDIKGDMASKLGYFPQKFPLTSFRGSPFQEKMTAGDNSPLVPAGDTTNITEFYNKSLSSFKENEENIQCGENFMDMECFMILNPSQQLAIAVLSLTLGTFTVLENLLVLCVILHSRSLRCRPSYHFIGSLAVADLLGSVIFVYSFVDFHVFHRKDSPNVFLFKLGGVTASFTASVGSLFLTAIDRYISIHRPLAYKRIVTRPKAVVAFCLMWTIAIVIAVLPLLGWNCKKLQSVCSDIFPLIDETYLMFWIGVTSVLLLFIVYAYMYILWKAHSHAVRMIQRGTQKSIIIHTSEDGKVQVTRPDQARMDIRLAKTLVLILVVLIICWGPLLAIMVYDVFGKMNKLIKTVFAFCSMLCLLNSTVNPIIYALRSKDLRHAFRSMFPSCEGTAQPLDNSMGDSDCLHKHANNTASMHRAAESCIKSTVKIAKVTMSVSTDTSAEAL
T1 sequence (P47746 whole entry): as the sequence (P20272 whole entry) above, with E95D counted along it

In the case of `CCCCCCC(C)(C)c1ccc(-c2cccc(O)c2)c(O)c1` [VSN13, 4-(1,1-Dimethylheptyl)-1,1′-biphenyl-2,3′-diol], the adverse cannabimimetic effects result on central CB1 receptors is recorded as “does not exhibit adverse cannabimimetic effects”. The compound also registered an IC50 at CB1 receptors of 1.5 µM.
On CB1 receptors, `CCCCCCC(C)(C)c1ccc(-c2cccnc2)c(O)c1` [VSN26, 5-(1,1-Dimethylheptyl)-2-pyridin-3-yl phenol] gave an IC50 of 3.6 µM.
The same measure, in the same setting: the figure for `CCCCCCC(C)(C)c1ccc(-c2ccncc2)c(O)c1` [VSN27, 5-(1,1-Dimethylheptyl)-2-pyridin-4-yl phenol] is 1.6 µM.
On the same count and under the same terms, the value for `CCCCCCC(C)(C)c1ccc(-c2cc(Cl)cc(Cl)c2)c(O)c1` [VSN28, 3′,5′-Dichloro-4-(1,1-dimethylheptyl)-1,1′-biphenyl-2-ol] was 2.2 µM; that for `CCCCCCC(C)(C)c1ccc(-c2cc(C)cc(C)c2)c(O)c1` [VSN29, 3′,5′-Dimethyl-4-(1,1-dimethylheptyl)-1,1′-biphenyl-2-ol] was 0.2 µM; that for `CCCCCCC(C)(C)c1ccc(-c2cccc(NC(C)=O)c2)c(O)c1` [VSN30, N-[4′-(1,1-dimethylheptyl)-2′-hydroxy-1,1′-biphenyl-3-yl]-acetamide] was 24.6 µM.
`CCCCCCC(C)(C)c1ccc(-c2cccc(CO)c2)c(O)c1` [VSN31, 4-(1,1-Dimethylheptyl)-3′-(hydroxymethyl)-1,1′-biphenyl-2-ol]: the IC50 at CB1 receptors came to 1.6 µM.
For `CN(C)C(=O)CCCCC(C)(C)c1ccc(-c2cccc(O)c2)c(O)c1` [VSN32], at CB1 receptors (displacement of [3H]SR141716A (0.5 nM), rat cerebellar membranes, read-out: IC50), the IC50 came out at 0.5 µM.
